Assay results from PubChem BioAssay AID2060603 (Molecular Pharmacology Branch, DTP, NCI, 2025).

System: 422866-222-R5-J1-PDC spheroid viability
Assay: Anticancer human tumor 422866-222-R5-J1-PDC patient-derived pancreatic adenocarcinoma cell line growth inhibition [CLK]
Conditions: spheroids with HUVEC and MSC; for IC50: curve of first compound; for viability, T/C: stronger effect = lower value
Procedure, shortened: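 Patient-derived tumor cells grown as complex spheroids with HUVEC endothelial cells and mesenchymal stem cells, treated with drug combinations. Concentrations descend in half-log steps from near clinical Cmax, or from 10 microM if Cmax unknown.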

[1] = second compound 0.0316 µM, first compound 0.0316 µM
[2] = second compound 0.0316 µM, first compound 0.1 µM
[3] = second compound 0.1 µM, first compound 0.0316 µM
[4] = second compound 0.1 µM, first compound 0.1 µM
[5] = second compound 0.316 µM, first compound 0.0316 µM
[6] = second compound 0.316 µM, first compound 0.1 µM
[7] = second compound 1 µM, first compound 0.0316 µM
[8] = second compound 1 µM, first compound 0.1 µM
[9] = second compound 3.16 µM, first compound 0.0316 µM
[10] = second compound 3.16 µM, first compound 0.1 µM
[11] = second compound 10 µM, first compound 0.0316 µM
[12] = second compound 10 µM, first compound 0.1 µM
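Note: spheroids exposed to agents for seven days before readout.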

Cn1ncnc1[C@H]1c2n[nH]c(=O)c3cc(F)cc(c23)N[C@@H]1c1ccc(F)cc1 + CN1CCN(c2cc(C(=O)Nc3cc4cc(-c5cnn(C)c5)ccc4cn3)ccn2)CC1
IC50 (second compound 0.0316 µM): > 100 nM
IC50 (second compound 0.1 µM): > 100 nM
IC50 (second compound 0.316 µM): > 100 nM
IC50 (second compound 1 µM): < 0.316 nM
IC50 (second compound 3.16 µM): < 0.316 nM
IC50 (second compound 10 µM): < 0.316 nM
viability, T/C (second compound 0.0316 µM, first compound 0.000316 µM): 92.9%
viability, T/C (second compound 0.0316 µM, first compound 0.001 µM): 112%
viability, T/C (second compound 0.0316 µM, first compound 0.00316 µM): 106%
viability, T/C (second compound 0.0316 µM, first compound 0.01 µM): 102%
viability, T/C [1]: 96%
viability, T/C [2]: 87.3%
viability, T/C (second compound 0.1 µM, first compound 0.000316 µM): 126%
viability, T/C (second compound 0.1 µM, first compound 0.001 µM): 114%
viability, T/C (second compound 0.1 µM, first compound 0.00316 µM): 113%
viability, T/C (second compound 0.1 µM, first compound 0.01 µM): 97.2%
viability, T/C [3]: 90%
viability, T/C [4]: 80.1%
viability, T/C (second compound 0.316 µM, first compound 0.000316 µM): 99.3%
viability, T/C (second compound 0.316 µM, first compound 0.001 µM): 96.3%
viability, T/C (second compound 0.316 µM, first compound 0.00316 µM): 85.8%
viability, T/C (second compound 0.316 µM, first compound 0.01 µM): 75.8%
viability, T/C [5]: 81.7%
viability, T/C [6]: 71.9%
viability, T/C (second compound 1 µM, first compound 0.000316 µM): 24%
viability, T/C (second compound 1 µM, first compound 0.001 µM): 22.9%
viability, T/C (second compound 1 µM, first compound 0.00316 µM): 19%
viability, T/C (second compound 1 µM, first compound 0.01 µM): 22.3%
viability, T/C [7]: 22.3%
viability, T/C [8]: 18.7%
viability, T/C (second compound 3.16 µM, first compound 0.000316 µM): 7.18%
viability, T/C (second compound 3.16 µM, first compound 0.001 µM): 10.9%
viability, T/C (second compound 3.16 µM, first compound 0.00316 µM): 8.25%
viability, T/C (second compound 3.16 µM, first compound 0.01 µM): 7.82%
viability, T/C [9]: 7.43%
viability, T/C [10]: 10.8%
viability, T/C (second compound 10 µM, first compound 0.000316 µM): 1.01%
viability, T/C (second compound 10 µM, first compound 0.001 µM): 2.31%
viability, T/C (second compound 10 µM, first compound 0.00316 µM): 1.8%
viability, T/C (second compound 10 µM, first compound 0.01 µM): 0.75%
viability, T/C [11]: 3.12%
viability, T/C [12]: 2.33%

O=C(c1cc(Cc2n[nH]c(=O)c3ccccc23)ccc1F)N1CCN(C(=O)C2CC2)CC1 + CN1CCN(c2cc(C(=O)Nc3cc4cc(-c5cnn(C)c5)ccc4cn3)ccn2)CC1
IC50 (second compound 0.0316 µM): > 10000 nM
IC50 (second compound 0.1 µM): > 10000 nM
IC50 (second compound 0.316 µM): > 10000 nM
IC50 (second compound 1 µM): < 31.6 nM
IC50 (second compound 3.16 µM): < 31.6 nM
IC50 (second compound 10 µM): < 31.6 nM
viability, T/C [1]: 120%
viability, T/C [2]: 112%
viability, T/C (second compound 0.0316 µM, first compound 0.316 µM): 112%
viability, T/C (second compound 0.0316 µM, first compound 1 µM): 125%
viability, T/C (second compound 0.0316 µM, first compound 3.16 µM): 102%
viability, T/C (second compound 0.0316 µM, first compound 10 µM): 84.1%
viability, T/C [3]: 122%
viability, T/C [4]: 105%
viability, T/C (second compound 0.1 µM, first compound 0.316 µM): 109%
viability, T/C (second compound 0.1 µM, first compound 1 µM): 98.7%
viability, T/C (second compound 0.1 µM, first compound 3.16 µM): 95%
viability, T/C (second compound 0.1 µM, first compound 10 µM): 88.4%
viability, T/C [5]: 96.8%
viability, T/C [6]: 82.2%
viability, T/C (second compound 0.316 µM, first compound 0.316 µM): 87.2%
viability, T/C (second compound 0.316 µM, first compound 1 µM): 85.5%
viability, T/C (second compound 0.316 µM, first compound 3.16 µM): 83.7%
viability, T/C (second compound 0.316 µM, first compound 10 µM): 74.8%
viability, T/C [7]: 26.2%
viability, T/C [8]: 24.4%
viability, T/C (second compound 1 µM, first compound 0.316 µM): 23.4%
viability, T/C (second compound 1 µM, first compound 1 µM): 22.4%
viability, T/C (second compound 1 µM, first compound 3.16 µM): 28.3%
viability, T/C (second compound 1 µM, first compound 10 µM): 25.2%
viability, T/C [9]: 10.1%
viability, T/C [10]: 11.2%
viability, T/C (second compound 3.16 µM, first compound 0.316 µM): 9.98%
viability, T/C (second compound 3.16 µM, first compound 1 µM): 8.62%
viability, T/C (second compound 3.16 µM, first compound 3.16 µM): 9.42%
viability, T/C (second compound 3.16 µM, first compound 10 µM): 12.3%
viability, T/C [11]: 1.86%
viability, T/C [12]: 1.82%
viability, T/C (second compound 10 µM, first compound 0.316 µM): 2.14%
viability, T/C (second compound 10 µM, first compound 1 µM): 2.42%
viability, T/C (second compound 10 µM, first compound 3.16 µM): 3.13%
viability, T/C (second compound 10 µM, first compound 10 µM): 2.42%
